Test results published in patent US9339554B2, “Tunable, biodegradable linker molecules for transient conjugation of components in drug delivery systems, and drug delivery systems prepared therewith” (CRISTAL DELIVERY B.V., priority 2010, dated 2016).

Test: In vitro release of DMS from DMS-prodrug-loaded core-cross-linked polymeric micelles
Format: physicochemical
Conditions: for 50% release of DMS: physiological conditions, prodrug covalently entrapped in CCL PM
Procedure: The eluent was acetonitril/H2O (23:77, v/v) with a flow rate of 1 mL/min. The sample volume was 7.5 μL. UV detection occurred at 246 nm.
The hydrolysis rate of a specific ester was pH-dependent in its turn, in that at pH 8.4 hydrolysis was accelerated as compared to the hydrolysis rate at pH 7.4. […] The same trend is consistently observed at different pH (i.e. 7.4 and 8.4) and for the different types of micelles (based on HPMAm and HEMAm).

| 50% release of DMS [weeks] | DMS release rate followed by UPLC (prodrug CCL PM, buffer pH 7.4 / 8.4, 37° C.) | SMILES |
| --- | --- | --- |
| ~4 | very slow release | C=C(C)C(=O)OCCSCC(=O)OCC(=O)[C@@]1(O)[C@H](C)CC2[C@@H]3CCC4=CC(=O)C=C[C@]4(C)[C@@]3(F)[C@@H](O)CC21C (stereo partly drawn) [DMSL1, 2-(2-(2-((8S,9R,10S,11S,16R,17R)-9-fluoro-11,17-dihydroxy-10,13,16-trimethyl-3-oxo-6,7,8,9,10,11,12,13,14,15,16,17-dodecahydro-3H-cyclopenta[α]phenanthren-17-yl)-2-oxoethoxy)-2-oxoethylthio)ethyl methacrylate] |
| ~1 | – | C=C(C)C(=O)OCCS(=O)(=O)CC(=O)OCC(=O)[C@@]1(O)[C@H](C)CC2[C@@H]3CCC4=CC(=O)C=C[C@]4(C)[C@@]3(F)[C@@H](O)CC21C (stereo partly drawn) [DMSL3, 2-(2-(2-((8S,9R,10S,11S,16R,17R)-9-fluoro-11,17-dihydroxy-10,13,16-trimethyl-3-oxo-6,7,8,9,10,11,12,13,14,15,16,17-dodecahydro-3H-cyclopenta[α]phenanthren-17-yl)-2-oxoethoxy)-2-oxoethylsulfonyl)ethyl methacrylate] |
